# Key:
# [1] = test system: HCT116^−/− human colon cancer cells (p53 negative); test: MTT cytotoxicity test, HCT116 p53-/-; conditions: HCT-116, read-out: CC50, HCT^−/−
# Excerpt: (§1) The used models included human prostate cancer cell lines LNCaP and PC3, breast cancer cell line (MCF-7), human colon cancer cells (HCT116^+/+, p53 positive, p53^+/+ and HCT116^−/−, p53 negative, p53^−/−), human lung adenocarcinoma epithelial cell line (A549), SV40-transformed normal human lung fibroblast cells (VA13), as well as human embryonic kidney 293 cells (Hek293) stably expressing SV40 large T antigen (Hek293T). The cytotoxicity of the evaluated molecules was properly assessed using a MTT assay based on the modified approach reported by Ferrari and colleagues.
# (§2) To further elucidate the dominant mode of action, we used HCT116^+/+ and HCT116^−/− cells by analogy with the paper published by Shangary and colleagues. This isogenic cell line is commonly applied to investigate the p53/MDM2-dependent mode of action.
# (§3) MTT test. The MTT assay was carried out according to [35] with few modifications; 3000 Cells (for HEK293T, A549 and MCF7cell lines) or 4000 cells (for VA13 cell line) were seeded in each well of a 96-well plate. […] Assays were performed in triplicates. […] The MTT solution was then discarded and 140 µL of DMSO was added. The plates were swayed on a shaker (60 rpm) to solubilize the formazan. […] The analysis of cytotoxicity and the estimation of IC50 values were carried out with the built-in functions in the GraphPad Prism program (GraphPad Software, Inc., San Diego, CA) P53 activation.
# [2] = test system: HCT116^+/+ human colon cancer cells (p53 positive); test: MTT cytotoxicity test, HCT116 p53+/+; conditions: for CC50: Homo sapiens, HCT-116, read-out: CC50, HCT^+/+; for selectivity S against HCT116^+/+ over HCT116^−/−: ratio of CC50 values of the cell line pair
# Excerpt: as §1, §2, §3
# [3] = test system: PC3 human prostate cancer cell line; test: MTT cytotoxicity test, PC3; type: cell-based; conditions: for CC50: Homo sapiens
# [4] = test system: A549 human lung adenocarcinoma epithelial cell line; test: MTT cytotoxicity test, A549; type: cell-based; conditions: 72 h incubation
# [5] = MTT cytotoxicity test, VA13; type: cell-based; conditions: human, VA13 SV40-transformed normal lung fibroblast cells, 72 h incubation
# Description: (§4) MTT test. […] Assays were performed in triplicates.
# [6] = test system: MCF7 breast cancer cell line; test: MTT cytotoxicity test, MCF7; type: cell-based; conditions: Homo sapiens, 72 h incubation
# Description: as §4
# [7] = test system: LNCaP human prostate cancer cell line; test: MTT cytotoxicity test, LNCaP; type: cell-based; conditions: for CC50: Homo sapiens, LNCaP, read-out: CC50, LNCaP; for selectivity index S for LNCaP/PC3 cells: ratio of CC50 values of the cell line pair
# [8] = MTT cytotoxicity test, Hek293T; type: cell-based; conditions: human, 72 h incubation
SMILES,CC50 [1],CC50 [2],melting point,CC50 [3],CC50 [4],CC50 at 72 h [5],CC50 [6],CC50 ([7]; MTT test),CC50 at 72 h [8],selectivity index S for LNCaP/PC3 cells [7],selectivity S against HCT116^+/+ over HCT116^−/− [2],"CC50, PC3 [3]","CC50, LNCaP ([7]; MTT test)",selectivity on LNCaP cells over PC3 cells ([7]; MTT test)
"C=CCN1C(=O)C2(CN(C)CC23C(=O)Nc2ccccc23)NC1=S (centres unmarked) [Compound 4c, 1′-Methyl-1-allyl-2-thioxodispiro[imidazolidine-4,3′-pyrrolidine-4′,3″-indoline]-2″,5-dione]",14.3 ± 6.65 µM,> 100 µM,281 to 283 °C (dec.),53.1 ± 15.8 µM,45.9 ± 13.4 µM,> 100 µM,> 100 µM,9.8 ± 3.3 µM,41.8 ± 12.4 µM,,,,,
"COc1ccc(N2C(=O)C3(CN(C)CC34C(=O)Nc3ccccc34)NC2=S)cc1 (centres unmarked) [Compound 4e, 1′-Methyl-1-(4-methoxyphenyl)-2-thioxodispiro[imidazolidine-4,3′-pyrrolidine-4′,3″-indoline]-2″,5-dione]",36 ± 12.6 µM,27.9 ± 6.94 µM,155 to 156 °C,> 100 µM,18.9 ± 3.1 µM,13.2 ± 2.3 µM,22.8 ± 5.6 µM,3.45 ± 0.45 µM,6.5 ± 0.9 µM,> 30,,,,
"Cc1ccc(N2C(=O)C3(CN(C)CC34C(=O)Nc3ccccc34)NC2=S)cc1 (centres unmarked) [Compound 4i, 1′-Methyl-1-(p-tolyl)-2-thioxodispiro[imidazolidine-4,3′-pyrrolidine-4′,3″-indoline]-2″,5-dione]",> 100 µM,> 100 µM,155 to 157 °C,> 100 µM,> 100 µM,> 100 µM,88.2 ± 32.2 µM,> 100 µM,> 100 µM,,,,,
"CN1CC2(NC(=S)N(c3ccc(F)cc3)C2=O)C2(C1)C(=O)Nc1ccccc12 (centres unmarked) [Compound 4m, 1′-Methyl-1-(4-fluorophenyl)-2-thioxodispiro[imidazolidine-4,3′-pyrrolidine-4′,3″-indoline]-2″,5-dione]",42.4 ± 4.7 µM,23.3 ± 3.3 µM,273 to 274 °C,1.93 ± 0.91 µM,> 100 µM,171 ± 15.8 µM,106 ± 43.1 µM,3.4 ± 0.7 µM,> 100 µM,,,,,
"CN1CC2(NC(=S)N(c3ccc(F)c(Cl)c3)C2=O)C2(C1)C(=O)Nc1ccccc12 (centres unmarked) [Compound 4q, 1′-Methyl-1-(3-chloro-4-fluorophenyl)-2-thioxodispiro[imidazolidine-4,3′-pyrrolidine-4′,3″-indoline]-2″,5-dione]",> 100 µM,> 100 µM,252 to 254 °C,> 100 µM,> 100 µM,57.9 ± 18.3 µM,62.2 ± 27.7 µM,> 100 µM,69.1 ± 21 µM,,,,,
"CN1CC2(NC(=S)N(c3ccccc3)C2=O)C2(C1)C(=O)Nc1ccccc12 (centres unmarked) [Compound 4w, 1′-Methyl-1-phenyl-2-thioxodispiro[imidazolidine-4,3′-pyrrolidine-4′,3″-indoline]-2″,5-dione]",> 100 µM,54.7 ± 9.5 µM,273 to 274 °C,52.2 ± 11.6 µM,> 100 µM,94.1 ± 19.7 µM,57.9 ± 17.1 µM,9.8 ± 1.8 µM,75.1 ± 8.6 µM,5.3,> 4.8,,,
"CN1CC2(NC(=S)N(c3ccc(Cl)cc3)C2=O)C2(C1)C(=O)Nc1ccc(Cl)cc12 (centres unmarked) [Compound 4l, 5″-Chloro-1′-methyl-1-(4-chlorophenyl)-2-thioxodispiro[imidazolidine-4,3′-pyrrolidine-4′,3″-indoline]-2″,5-dione]",57.1 ± 5.76 µM,42.5 ± 9.1 µM,239 to 240 °C,2.2 ± 0.7 µM,37 ± 6.5 µM,30.4 ± 3 µM,19.1 ± 4.1 µM,4.4 ± 0.67 µM,34 ± 3.4 µM,,,,,
"CN1CC2(NC(=S)N(C3CC3)C2=O)C2(C1)C(=O)Nc1ccccc12 (centres unmarked) [Compound 4s, 1′-Methyl-1-cyclopropyl-2-thioxodispiro[imidazolidine-4,3′-pyrrolidine-4′,3″-indoline]-2″,5-dione]",> 100 µM,> 100 µM,272 to 273 °C (dec.),> 100 µM,> 100 µM,> 100 µM,> 100 µM,> 100 µM,> 100 µM,,,,,
"CCOc1ccc(N2C(=O)C3(CN(C)CC34C(=O)Nc3ccc(Cl)cc34)NC2=S)cc1 (centres unmarked) [Compound 4h, 5″-Chloro-1′-methyl-1-(4-ethoxyphenyl)-2-thioxodispiro[imidazolidine-4,3′-pyrrolidine-4′,3″-indoline]-2″,5-dione]",> 100 µM,> 100 µM,268 to 271 °C,> 100 µM,6.2 ± 2.1 µM,6.3 ± 1.1 µM,8.5 ± 1.2 µM,> 100 µM,6.7 ± 0.9 µM,,,no activity at all,no activity at all,
"CN1CC2(NC(=S)N(Cc3cccc(Cl)c3)C2=O)C2(C1)C(=O)Nc1ccc(Cl)cc12 (centres unmarked) [Compound 4p, 5″-Chloro-1′-methyl-1-(3-chlorobenzyl)-2-thioxodispiro[imidazolidine-4,3′-pyrrolidine-4′,3″-indoline]-2″,5-dione]",> 100 µM,34.2 ± 5.7 µM,261 to 262 °C,2.2 ± 1.4 µM,11.3 ± 2.4 µM,12.3 ± 1.6 µM,6.6 ± 1 µM,4.1 ± 0.1 µM,18.4 ± 1.7 µM,,> 2.9,,,
"CN1CC2(NC(=S)N(Cc3ccccc3)C2=O)C2(C1)C(=O)Nc1ccc(Cl)cc12 (centres unmarked) [Compound 4b, 5″-Chloro-1′-methyl-1-benzyl-2-thioxodispiro[imidazolidine-4,3′-pyrrolidine-4′,3″-indoline]-2″,5-dione]",30 ± 15.2 µM,60.7 ± 13.8 µM,152 to 153 °C,49 ± 12.7 µM,9.1 ± 2.2 µM,21.4 ± 1.9 µM,24.3 ± 2.3 µM,10.3 ± 1.1 µM,9.5 ± 1.7 µM,,,,,moderate selectivity
"CN1CC2(NC(=S)N(CCCN3CCOCC3)C2=O)C2(C1)C(=O)Nc1ccccc12 (centres unmarked) [Compound 4u, 1′-Methyl-1-(3-morpholinopropyl)-2-thioxodispiro[imidazolidine-4,3′-pyrrolidine-4′,3″-indoline]-2″,5-dione]",> 100 µM,20.8 ± 4.8 µM,216 to 217 °C,53.6 ± 17.3 µM,> 100 µM,> 100 µM,> 100 µM,3.4 ± 0.6 µM,> 100 µM,15.7,> 1.8,,,selective
"Cc1ccc(N2C(=O)C3(CN(C)CC34C(=O)Nc3ccc(Cl)cc34)NC2=S)cc1 (centres unmarked) [Compound 4j, 5″-Chloro-1′-methyl-1-(p-tolyl)-2-thioxodispiro[imidazolidine-4,3′-pyrrolidine-4′,3″-indoline]-2″,5-dione]",> 100 µM,> 100 µM,159 to 160 °C,> 100 µM,62 ± 8.3 µM,27.2 ± 5.3 µM,13.7 ± 2.1 µM,> 100 µM,17.4 ± 2 µM,,,,,
"CCOc1ccc(N2C(=O)C3(CN(C)CC34C(=O)Nc3ccccc34)NC2=S)cc1 (centres unmarked) [Compound 4g, 1′-Methyl-1-(4-ethoxyphenyl)-2-thioxodispiro[imidazolidine-4,3′-pyrrolidine-4′,3″-indoline]-2″,5-dione]",> 100 µM,> 100 µM,240 to 241 °C,> 100 µM,38.2 ± 11.5 µM,73.6 ± 23.4 µM,75.2 ± 29.3 µM,> 100 µM,30.2 ± 8.2 µM,,,,,
"CN1CC2(NC(=S)N(Cc3ccccc3)C2=O)C2(C1)C(=O)Nc1ccccc12 (centres unmarked) [Compound 4a, 1′-Methyl-1-benzyl-2-thioxodispiro[imidazolidine-4,3′-pyrrolidine-4′,3″-indoline]-2″,5-dione]",40.1 ± 19.1 µM,66.2 ± 11.7 µM,189 to 190 °C,30.1 ± 9.1 µM,20.3 ± 3.7 µM,16.1 ± 2.5 µM,31.3 ± 6.7 µM,12.5 ± 2.1 µM,9.8 ± 1.6 µM,,,,,moderate selectivity
